Reference: patent publication US20110144125A1, “Anti-Arrhythmia Agents, Methods of Their Use, Methods of Their Identification and Kits Therefore” (THE UAB RESEARCH FOUNDATION, priority 2008, published 2011)
Values joined by “and” are separate entries in the source; they are usually repeats but may differ in a detail not shown here. Equal values may be shown once. Read-outs that look alike come from different tables or passages of the source.

Legend:
[1] = test system: rat left atrial appendage; assay: 2-APB-induced spontaneous mechanical activity (SMA/SMEs) in isolated superfused rat left atria / left atrial appendage
[2] = test system: rat left atrial appendage; assay: ATXII-induced triggered activity and transition to automaticity in left atrial appendage; conditions: ATXII-treated appendages, ˜25 μM 2-APB
From the text: There are two types of afterdepolarizations; early afterdepolarizations (EADs) that occur early during repolarization and delayed afterdepolarizations (DADs) that occur in fully repolarized, resting myocytes (FIG. 4). Both EADs and DADs are defined as “triggered” activities as they require a preceding normal action potential to occur (FIG. 3B). One model to elicit EADs is to expose heart muscle or myocytes to Anemonia sulcata Toxin II (ATX II). This 47 amino acid peptide specifically enhances late sodium current and prolongs the action potential duration (FIG. 3D; middle panel). This leads to calcium loading of heart muscle followed by EADs during phase 2 or phase 3 of the action potential (FIGS. 3D & 5). These EADs, if of sufficient magnitude, produce ectopic mechanical events (FIG. 3B; ‡).
In embodiments of the assay an agent to induce arrhythmia will be introduced in the muscle. The arrhythmic agent may be chemical or physical. If the agent is chemical, it can be any chemical agent known by those skilled in the art to induce arrhythmia. The chemical agent will be introduced at a concentration sufficient to induce arrhythmia. If a certain type of arrhythmia is the subject of the assay (for example, triggered activity, tachycardia or any other type of arrhythmia), then the agent should be present at a concentration sufficient to produce the certain type of arrhythmia. One acceptable agent is anemone toxin II (“ATX II,”), the toxin of Anemone sulcata. ATX II is a sodium channel regulator.
It was tested whether the altered voltage-independent calcium homeostasis which 2-APB provokes is sufficient to initiate frank automaticity from triggered activity.

[3] = no 2-APB, 30 nM isoproterenol, 3 μM forskolin, 300 nM BayK 8644 or FPL-64176, 120 μM ouabain, 600 nM ryanodine

In the case of `COC(=O)c1c(C)[nH]c(C)c1C(=O)c1ccccc1Cc1ccccc1` [FPL-64176, 2,5-Dimethyl-4-[2-(phenylmethyl)benzoyl]-111-pyrrole-3-carboxylic acid methyl ester], the “ectopic activity (SMEs/SMA/STA) with agent alone” value (shortened to “ectopic activity (SMEs/SMA/STA)”) [1] is reported as “SMA or SMEs do not occur”.
With `C[C@@H]1O[C@@H](O[C@H]2C[C@@H](O)[C@]3(CO)[C@H]4[C@H](O)C[C@]5(C)[C@@H](C6=CC(=O)OC6)CC[C@]5(O)[C@@H]4CC[C@]3(O)C2)[C@H](O)[C@H](O)[C@H]1O` [ouabain] the “ectopic activity (SMEs/SMA/STA)” value [1, 3] was “does not affect their mechanical stability”.
In the case of `CC(C)NCC(O)c1ccc(O)c(O)c1` (stereo not drawn) [isoproterenol], the “ectopic activity (SMEs/SMA/STA)” value [1, 3] is reported as “quiescent in the absence of pacing”.
For `NCCOB(c1ccccc1)c1ccccc1` [2-APB, 2-aminoethoxydiphenyl borate], the “transition from triggered activity to STA” value [2] was “STA began to occur”, the “2-APB concentration giving intermittent increases in left atrial mechanical force independent of pacing (SMEs)” value [1] was over 7.5 µM and the “2-APB concentration producing sporadic mechanical events in the absence of pacing stimulus” value [1] was over 10 M. For the same compound, the SMEs during rest [1] was “numerous SMEs during rest”, the “SMEs giving way to SMA” value [1] was “Repeated SMEs” and the “SMEs in slowly paced preparations” value [1] was “only few SMEs”. The “rate of SMA” value [1] was 47±6 contractions/min and ~50 contractions/min.
In the case of `COC(=O)C1=C(C)NC(C)=C([N+](=O)[O-])[C@H]1c1ccccc1C(F)(F)F` [BayK 8644, (45)-1,4-Dihydro-2,6-dimethyl-5-nitro-4-[2-(trifluormethyl)phenyl]-3-pyridinecarboxylic acid methyl ester], the “ectopic activity (SMEs/SMA/STA)” value [1] is reported as “SMA or SMEs do not occur”.
With ryanodine the “ectopic activity (SMEs/SMA/STA)” value [1] was “SMEs, SMA or STA does not occur”.
